In ChEMBL document CHEMBL1201862, “PubChem BioAssay data set” (2004):
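Following 48 hours of exposure in 96-well plates, responses at five concentrations were used to interpolate endpoints linearly. Here, GI50 denotes the concentration required for 50% inhibition of growth.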 The source made the active and inactive calls. Rule as the data show it: active = GI50 up to about 1.1 µM and inactive = higher.

Experiments:
Assay in all cases: DTP human tumour cell line panel, 48 h
NCI-H226 = system: NCI-H226
SF-268 = system: SF-268
UO-31 = system: UO-31
SNB-75 = system: SNB-75
HT-29 = system: HT-29
OVCAR-3 = system: OVCAR-3
UACC-62 = system: UACC-62
SK-OV-3 = system: SK-OV-3
ACHN = system: ACHN
786-0 = system: 786-0
OVCAR-4 = system: OVCAR-4
KM-20L2 = system: KM-20L2
Malme-3M = system: Malme-3M
DMS-114 = system: DMS-114
HOP-62 = system: HOP-62
HL-60 = system: HL-60
SF-539 = system: SF-539
SR = system: SR
KM12 = system: KM12
A549 = system: A549
SK-MEL-2 = system: SK-MEL-2
NCI-H460 = system: NCI-H460
HOP-92 = system: HOP-92
M19-MEL = system: M19-MEL
HCT-116 = system: HCT-116
RPMI-8226 = system: RPMI-8226
DMS-273 = system: DMS-273
HCC 2998 = system: HCC 2998
OVCAR-5 = system: OVCAR-5
HCT-15 = system: HCT-15
XF498 = system: XF498
LOX IMVI = system: LOX IMVI
SN12C = system: SN12C
SK-MEL-5 = system: SK-MEL-5
IGROV-1 = system: IGROV-1
CCRF-CEM = system: CCRF-CEM
MOLT-4 = system: MOLT-4
EKVX = system: EKVX
M14 = system: M14
UACC-257 = system: UACC-257
COLO 205 = system: COLO 205
NCI-H522 = system: NCI-H522
LXFL 529 = system: LXFL 529
NCI-H23 = system: NCI-H23
SF-295 = system: SF-295
SNB-19 = system: SNB-19
OVCAR-8 = system: OVCAR-8
A498 = system: A498
K562 = system: K562
U-251 = system: U-251
DLD-1 = system: DLD-1
SNB-78 = system: SNB-78
SW-620 = system: SW-620
RXF 393 = system: RXF 393
SK-MEL-28 = system: SK-MEL-28
CAKI-1 = system: CAKI-1

SMILES: CC[n+]1c(/C=C/c2cc(C(=O)OC)n3c2sc2ccccc23)sc2ccccc21
- GI50 (NCI-H226): 23 µM (inactive)
- GI50 (SF-268): 21.5 µM (inactive)
- GI50 (UO-31): 17.5 µM (inactive)
- GI50 (SNB-75): 15.7 µM (inactive)
- GI50 (HT-29): 16.6 µM (inactive)
- GI50 (OVCAR-3): 20.3 µM (inactive)
- GI50 (UACC-62): 0.394 µM (active)
- GI50 (SK-OV-3): 17.9 µM (inactive)
- GI50 (ACHN): 19.1 µM (inactive)
- GI50 (786-0): 19.1 µM (inactive)
- GI50 (OVCAR-4): 17.8 µM (inactive)
- GI50 (KM-20L2): 17.8 µM (inactive)
- GI50 (Malme-3M): 16.7 µM (inactive)
- GI50 (DMS-114): 19.2 µM (inactive)
- GI50 (HOP-62): 0.434 µM (active)
- GI50 (HL-60): 13.9 µM (inactive)
- GI50 (SF-539): 18.2 µM (inactive)
- GI50 (SR): > 10 µM (inactive)
- GI50 (KM12): 14.7 µM (inactive)
- GI50 (A549): 18.8 µM (inactive)
- GI50 (SK-MEL-2): 18.7 µM (inactive)
- GI50 (NCI-H460): 16.2 µM (inactive)
- GI50 (HOP-92): 15.5 µM (inactive)
- GI50 (M19-MEL): 18.9 µM (inactive)
- GI50 (HCT-116): 14.5 µM (inactive)
- GI50 (RPMI-8226): > 10 µM (inactive)
- GI50 (DMS-273): 17.6 µM (inactive)
- GI50 (HCC 2998): 14.6 µM (inactive)
- GI50 (OVCAR-5): 20.8 µM (inactive)
- GI50 (HCT-15): 18.8 µM
- GI50 (XF498): 13.3 µM (inactive)
- GI50 (LOX IMVI): 17.5 µM (inactive)
- GI50 (SN12C): 23.1 µM (inactive)
- GI50 (SK-MEL-5): 15 µM (inactive)
- GI50 (IGROV-1): 16.9 µM (inactive)
- GI50 (CCRF-CEM): 0.214 µM (active)
- GI50 (MOLT-4): 11.4 µM (inactive)
- GI50 (EKVX): 20.7 µM (inactive)
- GI50 (M14): 18.8 µM (inactive)
- GI50 (UACC-257): 17.3 µM (inactive)
- GI50 (COLO 205): 22.9 µM (inactive)
- GI50 (NCI-H522): 15.6 µM (inactive)
- GI50 (LXFL 529): 13.8 µM (inactive)

SMILES: N#Cc1cc([N+](=O)[O-])ccc1NC(=O)/C(=N/N)C(C(=O)c1ccc(Cl)c(Cl)c1)C1OC(=O)c2ccccc21 (stereo not drawn)
- GI50 (NCI-H23): 25.1 µM (inactive)
- GI50 (SF-295): 26.4 µM (inactive)
- GI50 (NCI-H226): 16.3 µM (inactive)
- GI50 (SF-268): 59.8 µM (inactive)
- GI50 (UO-31): 49.9 µM (inactive)
- GI50 (HT-29): 81.3 µM (inactive)
- GI50 (OVCAR-3): 90.8 µM (inactive)
- GI50 (UACC-62): 31 µM (inactive)
- GI50 (SNB-19): 69.3 µM (inactive)
- GI50 (SK-OV-3): > 100 µM (inactive)
- GI50 (ACHN): 36.6 µM (inactive)
- GI50 (786-0): 59.3 µM (inactive)
- GI50 (OVCAR-4): 30.8 µM (inactive)
- GI50 (Malme-3M): > 100 µM (inactive)
- GI50 (OVCAR-8): 28.1 µM (inactive)
- GI50 (A498): 29.4 µM (inactive)
- GI50 (DMS-114): 28.4 µM (inactive)
- GI50 (HOP-62): 54.6 µM (inactive)
- GI50 (SF-539): 67.5 µM (inactive)
- GI50 (K562): 24.3 µM (inactive)
- GI50 (SR): 54.2 µM (inactive)
- GI50 (U-251): 42.9 µM (inactive)
- GI50 (KM12): 58.1 µM (inactive)
- GI50 (A549): 23.7 µM (inactive)
- GI50 (SK-MEL-2): 72.3 µM (inactive)
- GI50 (NCI-H460): 35.8 µM (inactive)
- GI50 (DLD-1): 35 µM (inactive)
- GI50 (HOP-92): 8.81 µM (inactive)
- GI50 (M19-MEL): 26.9 µM (inactive)
- GI50 (HCT-116): 39.1 µM (inactive)
- GI50 (SNB-78): 75 µM (inactive)
- GI50 (SW-620): 95.7 µM (inactive)
- GI50 (RPMI-8226): 46.1 µM (inactive)
- GI50 (HCC 2998): 65.9 µM (inactive)
- GI50 (OVCAR-5): 47.2 µM (inactive)
- GI50 (RXF 393): 19.5 µM (inactive)
- GI50 (HCT-15): 42.2 µM
- GI50 (LOX IMVI): 21.7 µM (inactive)
- GI50 (SN12C): 90.8 µM (inactive)
- GI50 (SK-MEL-5): 63.7 µM (inactive)
- GI50 (SK-MEL-28): 35.6 µM (inactive)
- GI50 (IGROV-1): > 100 µM (inactive)
- GI50 (CCRF-CEM): 38.9 µM (inactive)
- GI50 (MOLT-4): 36.8 µM (inactive)
- GI50 (CAKI-1): 38.1 µM (inactive)
- GI50 (EKVX): 45 µM (inactive)
- GI50 (UACC-257): 84.7 µM (inactive)
- GI50 (COLO 205): > 100 µM (inactive)
- GI50 (NCI-H522): 26.1 µM (inactive)
- GI50 (LXFL 529): 43 µM (inactive)
